# According to US4159328A, “Tetrahydro-1,3,5-thiadiazin-4-one derivative” (Nihon Nohyaku Co., Ltd., priority 1977, dated 1979):
# Where two headings read alike, the source gives them in different places.
# Experiments:
# [1] = tested on: larvae of diamond-back moth (Plutilla xylostella Linn'e); test: Test Example 10: insecticidal activity against larvae of diamond-back moth; assay type: in vivo; conditions: 400 ppm, first-instar larvae, three days; 4320 min
# Source text: Insecticidal activity against larvae of diamond-back moth (Plutilla xylostella Linn'e). Testing method: A test composition of 400 ppm concentration was sprayed over the pot-planted chinese cabbage in a greenhouse by means of a spray gun. After air-drying, the chinese cabbage was infested with 10 first-instar larvae of diamond-back moth and was left standing in the greenhouse. Three days after the treatment, the dead-and-survival was inspected to calculate the mortality (3-replication test).
# [2] = tested on: 5th-instar larvae of brown planthopper; test: mortality in 7 days after spraying on 5th-instar larvae of brown planthopper; assay type: in vivo; conditions: Nilaparvata lugens, 168 h; for mortality at 100 ppm: 5th-instar larvae, 7 days
# [3] = tested on: adult rust-red-flour beetle (Tribolium castaneum Herbst); test: Test Example 7: insecticidal activity to adult rust-red-flour beetle; assay type: in vivo
# Description: Insecticidal activity to adult rust-red-flour beetle (Tribolium castaneum Herbst).
# Testing method: Into a 9-cm Petri dish covered on the bottom with a piece of filter paper, was introduced 7 ml of a test composition of 400 ppm concentration. Ten adult rust-red flour beetles were released in the Petri dish and left standing in a constant temperature cabinet at 25° C. After 24 hours, the dead-and-survival was inspected to calculate the mortality.
# [4] = tested on: larvae of brown planthopper (Nilaparvata lugens Stahl); test: Test Example 1: insecticidal activity against larvae of brown planthopper; assay type: in vivo; conditions: 120 h, third-instar larvae, 25° C., 5 days after treatment
# In short: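 Rice seedlings at 1.5-leaf stage were dipped for 30 s in a 400 ppm test composition, air-dried, and infested with third-instar N. lugens larvae. After holding at 25 °C, mortality was scored 5 or 7 days post-treatment from three replicates.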
# [5] = tested on: two-spotted spider mite (Tetranychus urticae Koch); test: Test Example 3: activity to two-spotted spider mite; assay type: in vivo; conditions: 120 h, 1,000 ppm, 5 days after treatment
# Source text: Activity to two-spotted spider mite (Tetranychus urticae Koch).
# Testing method: Two-spotted spider mites were set free on the pot-planted soybean in a greenhouse. On the next day, a test composition of 1,000 ppm concentration was sprayed over the soybean by means of a spray gun. Two days or five days after the treatment, dead-and-survival was inspected to calculate the mortality.
# [6] = tested on: larvae of house mosquito (Culex pipiens pallens Coquillett); test: Test Example 6: insecticidal activity to larvae of house mosquito; assay type: in vivo; conditions: 120 h
# In short: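 Twenty first-instar Culex pipiens pallens larvae placed with feed in test composition diluted in deionized water to 10 ppm. Kept at 25 °C, and mortality counted five days after treatment.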
# [7] = tested on: cirrus red mite (Panonychus citri McGregor); test: Test Example 4: activity to citrus red mite (Rothamstead method); assay type: in vivo; design: concentration or dose not given beside the values; conditions: two days after treatment, 25° C.; 2880 min
# Description: Activity to cirrus red mite (Panonychus citri McGregor).
# Testing method: The test was performed by Rothamstead method. A test composition was sprayed by means of a spray gun over grapefruit leaves infested with citrus red mites. After air-drying the grapefruit was left standing in a constant temperature cabinet at 25° C. Two days after the treatment, the number of survived mites was counted to calculate the mortality.
# [8] = tested on: larvae of bug. (Togo hemipterus Scott); test: Test Example 9: insecticidal activity against larvae of bug; assay type: in vivo; conditions: 120 h
# Description: Insecticidal activity against larvae of bug. (Togo hemipterus Scott).
# Test method: Into a glass tube (1.6 cm in internal diameter and 9 cm in length), was added 1 ml of a test composition in 10 ppm concentration just to moisten the absorbent cotton. Five rice seeds and five first-instar larvae were introduced into the glass tube and the tube end was covered with a piece of Japanese paper. The glass tube was kept in a constant temperature cabinet at 25° C. Five days after treatment, the dead-and-survival was inspected to calculate the mortality (3-replication test).
# [9] = tested on: larvae of white-backed planthopper (Sogatella furcifera Horvath); test: Test Example 2: insecticidal activity against larvae of white-backed planthopper; assay type: in vivo; conditions: 168 h
# In short: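 Rice seedlings at 1.5-leaf stage were dipped 30 s in 400 ppm test composition, air-dried, and infested with five first-instar larvae. Tubes were held at 25°C, and mortality was scored at 7 days from triplicate tests.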
# [10] = tested on: larvae of 28-spotted lady beetle (Epilachna vigintioctopunctana Fabricius); test: Test Example 8: insecticidal activity against larvae of 28-spotted lady beetle; assay type: in vivo; conditions: 120 h
# Description: Insecticidal activity against larvae of 28-spotted lady beetle (Epilachna vigintioctopunctana Fabricius).
# Testing method: Leaflets of tomato grown in a greenhouse were dipped in a test composition of 100 ppm concentration for 30 seconds and after that the leaflets were dried by air. In a Petri dish covered on the bottom with a piece of filter paper, were introduced 1 ml of water and three treated tomato leaflets. After having been infested with seven second-instar larvae of 28-spotted lady beetle, the Petri dish was left standing in a constant temperature cabinet at 25° C. Five days after the treatment, the dead-and-survival was inspected to calculate the mortality (2-replication test).
# mammalian acute toxicity = conditions: mouse, in vivo, mice, male
# Description: For example, 2-t-butylimino-3-isopropyl-5-phenyltetrahydro-1,3,5-thiadiazin-4-one (compound No. 145) and 2-t-butylimino-3-isopropyl-5-p-tolyltetrahydro-1,3,5-thiadiazin-4-one (compound No. 318) have LD50 (mice, male) of 10,000 mg/kg or higher. Many other compounds of this invention have LD50 (mice, male) of 5,000 mg/kg or higher.
# [11] = tested on: larvae of green rice leafhopper (Nephotettix cincticeps Uhler); test: Test Example 5: activity against larvae of green rice leafhopper; assay type: in vivo; conditions: 168 h
# In short: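 Rice seedlings at 1.5 leaf age dipped 30 seconds in 400 ppm test composition, air-dried, then infested with five second-instar larvae. Kept at 25° C; mortality scored seven days after treatment, three replicates.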
# [12] = 400 ppm, adults, 25° C., 24 hours, read-out: Mortality
# [13] = 10 ppm, first-instar larvae, 25° C., five days, read-out: Mortality
# [14] = 400 ppm, first-instar larvae, 25° C., seven days after treatment, read-out: Mortality
# [15] = 400 ppm, second-instar larvae, 25° C., seven days after treatment, read-out: Mortality
SMILES,Mortality [1] [%],mortality at 400 ppm [4] [%],mortality at 1000 ppm [5] [%],mortality at 10 ppm [6] [%],further results
Cc1cccc(N2CSC(=NC(C)C)N(Cc3ccccc3)C2=O)c1 [Compound 329],100,–,–,–,–
CC(C)N=C1SCN(c2ccc([N+](=O)[O-])cc2[N+](=O)[O-])C(=O)N1C(C)C [Compound 366],100,–,–,–,–
"CNC(=O)Oc1cccc2ccccc12 [NAC, 1-naphthyl N-methylcarbamate, reference compound]",–,–,–,–,mortality at 200 ppm ([2]; read-out: mortality in 7 days after spraying): 30%
C=CCN1C(=O)N(c2cccc(Cl)c2)CSC1=NC(C)(C)C [Compound 218],–,100,100,100,"mortality at 400 ppm [3, 12]: 100%; Mortality [7]: 100%"
"C=CCN1C(=O)N(c2cccc(Cl)c2)CSC1=NC(C)C [Compound 217, 2-Isopropylimino-3-allyl-5-(m-chlorophenyl)-tetrahydro-1,3,5-thiadiazin-4-one]",–,100,100,–,"mortality at 400 ppm [3, 12]: 100%; mortality at 10 ppm [8, 13]: 100%"
"CC(C)N1C(=O)N(c2ccccc2)CSC1=NC(C)(C)C [Compound 145, 2-t-Butylimino-3-isopropyl-5-phenyl-tetrahydro-1,3,5-thiadiazin-4-one]",–,–,–,100,mortality at 400 ppm [9]: 100%; mortality at 10 ppm [8]: 100%; Mortality [7]: 100%; mortality at 100 ppm [10]: 100%; LD50 (mammalian acute toxicity): ≥ 10000 mg/kg; mortality at 100 ppm [2]: 100%; mortality at 400 ppm [11]: 100%
"CC(C)N=C1SCN(c2ccccc2)C(=O)N1C [Compound 118, 2-Isopropylimino-3-methyl-5-phenyl-tetrahydro-1,3,5-thiadiazin-4-one]",–,–,–,–,"mortality at 10 ppm [8, 13]: 100%; Mortality [7]: 100%"
CCN=C1SCN(c2cccc(C)c2)C(=O)N1CC [Compound 324],100,100,–,–,–
CC(C)(C)N=C1SCN(c2ccc(Cl)cc2)C(=O)N1C1CCCCC1 [Compound 208],80,–,–,–,–
C=CCN1C(=O)N(c2cccc(Cl)c2)CSC1=NCc1ccccc1 [Compound 219],80,100,70,–,mortality at 400 ppm ([3]; 24 h): 100%; Mortality [7]: 100%
COCCN1C(=O)N(c2ccc(Cl)cc2)CSC1=NC(C)C [Compound 207],100,–,–,–,–
CCC(C)N=C1SCN(c2cccc(C)c2)C(=O)N1C(C)CC (stereo not drawn) [Compound 327],100,100,100,90,"mortality at 400 ppm [9, 14]: 100%; mortality at 100 ppm [10]: 100%; mortality at 400 ppm [11, 15]: 100%"
CCC(C)N1C(=O)N(c2ccccc2)CSC1=NC(C)(C)C (stereo not drawn) [Compound 152],–,100,–,100,"mortality at 400 ppm [9, 14]: 100%; mortality at 10 ppm [8, 13]: 100%; mortality at 100 ppm [10]: 100%; mortality at 400 ppm [11, 15]: 100%"
CC(C)CN1C(=O)N(c2cccc(Cl)c2)CSC1=NC(C)(C)C [Compound 223],–,100,70,100,"mortality at 400 ppm [3, 12]: 100%"
CCCCN1C(=O)N(c2cccc(Cl)c2)CSC1=NC(C)(C)C [Compound 236],100,80,–,–,–
CCCN1C(=O)N(c2ccccc2)CSC1=NC(C)C [Compound 135],–,100,–,100,"mortality at 10 ppm [8, 13]: 100%; Mortality [7]: 100%; mortality at 100 ppm [10]: 100%"
"CCN1C(=O)N(c2cccc(Cl)c2)CSC1=NC(C)(C)C [Compound 216, 2-t-Butylimino-3-ethyl-5-(m-chlorophenyl)-tetrahydro-1,3,5-thiadiazin-4-one]",–,100,70,–,"mortality at 400 ppm [3, 12]: 100%; mortality at 10 ppm [8, 13]: 100%"
"CCN1C(=O)N(c2ccccc2)CSC1=NC(C)(C)C [Compound 131, 2-t-Butylimino-3-ethyl-5-phenyl-tetrahydro-1,3,5-thiadiazin-4-one]",–,100,–,100,"mortality at 10 ppm [8, 13]: 100%; Mortality [7]: 100%; mortality at 100 ppm [10]: 100%; mortality at 400 ppm [11, 15]: 100%"
CN=C1SCN(c2cccc(Cl)c2)C(=O)N1C [Compound 213],–,100,100,100,"mortality at 400 ppm [3, 12]: 100%"
CC(C)N1C(=O)N(c2cccc(Cl)c2)CSC1=NC(C)(C)CC(C)(C)C [Compound 222],–,100,80,–,"mortality at 400 ppm [3, 12]: 100%; mortality at 10 ppm [8, 13]: 100%"
"CCc1ccc(N2CSC(=NC(C)(C)C)N(C(C)C)C2=O)cc1 [Compound 333, 2-t-butylimino-3-isopropyl-5-(p-ethylphenyl)-tetrahydro-1,3,5-thiadiazin-4-one]",100,100,–,100,"mortality at 400 ppm [9, 14]: 100%; mortality at 400 ppm [11, 15]: 100%"
"CCc1ccc(N2CSC(=NC)N(C)C2=O)cc1 [Compound 331, 2-methylimino-3-methyl-5-(p-ethylphenyl)-tetrahydro-1,3,5-thiadiazin-4-one]",100,–,–,–,–
"Cc1ccc(N2CSC(=NC(C)(C)C)N(C(C)C)C2=O)cc1 [Compound 318, 2-t-Butylimino-3-isopropyl-5-(p-tolyl)-tetrahydro-1,3,5-thiadiazin-4-one]",–,100,100,90,"mortality at 400 ppm [9, 14]: 100%; mortality at 100 ppm [10]: 100%; LD50 (mammalian acute toxicity): ≥ 10000 mg/kg; mortality at 100 ppm [2]: 100%; mortality at 400 ppm [11, 15]: 100%"
Cc1cccc(N2CSC(=NC(C)(C)C)N(C(C)C)C2=O)c1 [Compound 326],100,100,–,100,"mortality at 400 ppm [9, 14]: 100%; mortality at 100 ppm [10]: 100%; mortality at 400 ppm [11, 15]: 100%"
CC(C)N1C(=O)N(c2cccc(Cl)c2)CSC1=NC1CCCCC1 [Compound 230],100,–,–,–,–
CCC(C)N=C1SCN(c2cccc(Cl)c2)C(=O)N1C(C)CC (stereo not drawn) [Compound 224],–,100,100,100,"mortality at 400 ppm [3, 12]: 100%; mortality at 400 ppm [9, 14]: 100%; mortality at 400 ppm [11, 15]: 100%"
CCCN1C(=O)N(c2cccc(Cl)c2)CSC1=NC(C)(C)C [Compound 232],70,70,–,–,–
